In ChEMBL document CHEMBL5291721, “A preclinical secondary pharmacology resource illuminates target-adverse drug reaction associations of marketed drugs” (Nat Commun, 2023):

Tests used:
[1] = molecular target: T1, Adenosine receptor A1 (Homo sapiens, UniProt P30542)
T1 sequence (P30542 whole entry): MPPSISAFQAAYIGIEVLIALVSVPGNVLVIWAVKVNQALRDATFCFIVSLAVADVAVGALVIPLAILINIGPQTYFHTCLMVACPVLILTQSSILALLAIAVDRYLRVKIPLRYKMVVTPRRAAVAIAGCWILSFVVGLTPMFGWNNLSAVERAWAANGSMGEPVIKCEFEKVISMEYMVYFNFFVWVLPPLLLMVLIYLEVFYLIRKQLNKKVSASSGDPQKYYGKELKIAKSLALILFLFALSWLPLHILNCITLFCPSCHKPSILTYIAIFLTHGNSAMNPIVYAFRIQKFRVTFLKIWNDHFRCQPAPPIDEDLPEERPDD

[2] = molecular target: 3',5'-cyclic-AMP phosphodiesterase 4A (Homo sapiens, UniProt P27815); format: functional
3',5'-cyclic-AMP phosphodiesterase 4A, sequence (P27815 whole entry): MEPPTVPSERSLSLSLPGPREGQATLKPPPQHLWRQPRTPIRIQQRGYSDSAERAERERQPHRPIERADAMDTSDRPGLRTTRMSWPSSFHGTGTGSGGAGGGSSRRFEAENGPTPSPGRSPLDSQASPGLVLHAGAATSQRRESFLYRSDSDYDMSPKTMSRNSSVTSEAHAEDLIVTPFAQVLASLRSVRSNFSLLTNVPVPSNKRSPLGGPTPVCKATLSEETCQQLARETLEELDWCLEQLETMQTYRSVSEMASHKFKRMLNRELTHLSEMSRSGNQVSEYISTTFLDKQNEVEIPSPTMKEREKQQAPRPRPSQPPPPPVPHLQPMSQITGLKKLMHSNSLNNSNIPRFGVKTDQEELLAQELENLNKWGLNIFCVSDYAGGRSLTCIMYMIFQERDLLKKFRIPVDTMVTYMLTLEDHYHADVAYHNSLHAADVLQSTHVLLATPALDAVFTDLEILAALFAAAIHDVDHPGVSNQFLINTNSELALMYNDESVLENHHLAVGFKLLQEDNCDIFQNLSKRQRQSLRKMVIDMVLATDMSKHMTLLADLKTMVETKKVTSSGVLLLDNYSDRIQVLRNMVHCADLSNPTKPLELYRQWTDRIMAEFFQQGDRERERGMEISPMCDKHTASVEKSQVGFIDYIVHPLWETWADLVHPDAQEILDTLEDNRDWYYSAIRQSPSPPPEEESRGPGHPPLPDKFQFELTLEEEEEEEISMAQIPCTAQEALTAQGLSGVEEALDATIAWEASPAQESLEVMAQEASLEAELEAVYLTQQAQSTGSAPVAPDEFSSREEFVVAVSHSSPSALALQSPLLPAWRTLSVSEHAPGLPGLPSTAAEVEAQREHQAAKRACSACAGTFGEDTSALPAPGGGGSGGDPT

[3] = molecular target: T2, Muscarinic acetylcholine receptor M1 (Homo sapiens, UniProt P11229); format: functional, cell-based
T2 sequence (P11229 whole entry): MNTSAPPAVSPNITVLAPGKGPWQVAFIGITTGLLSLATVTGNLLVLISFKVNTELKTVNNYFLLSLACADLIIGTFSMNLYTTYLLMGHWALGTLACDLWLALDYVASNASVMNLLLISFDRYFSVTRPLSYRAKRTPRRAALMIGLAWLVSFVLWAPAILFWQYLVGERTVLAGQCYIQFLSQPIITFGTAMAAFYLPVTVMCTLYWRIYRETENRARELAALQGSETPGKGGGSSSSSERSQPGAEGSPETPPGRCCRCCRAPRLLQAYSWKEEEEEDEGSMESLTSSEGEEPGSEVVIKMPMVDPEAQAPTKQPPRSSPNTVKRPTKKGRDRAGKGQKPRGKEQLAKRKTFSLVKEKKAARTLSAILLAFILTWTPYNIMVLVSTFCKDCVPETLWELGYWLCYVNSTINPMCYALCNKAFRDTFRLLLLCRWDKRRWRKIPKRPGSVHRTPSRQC

[4] = molecular target: Melanocortin receptor 3 (Homo sapiens, UniProt P41968)
Melanocortin receptor 3, sequence (P41968 whole entry): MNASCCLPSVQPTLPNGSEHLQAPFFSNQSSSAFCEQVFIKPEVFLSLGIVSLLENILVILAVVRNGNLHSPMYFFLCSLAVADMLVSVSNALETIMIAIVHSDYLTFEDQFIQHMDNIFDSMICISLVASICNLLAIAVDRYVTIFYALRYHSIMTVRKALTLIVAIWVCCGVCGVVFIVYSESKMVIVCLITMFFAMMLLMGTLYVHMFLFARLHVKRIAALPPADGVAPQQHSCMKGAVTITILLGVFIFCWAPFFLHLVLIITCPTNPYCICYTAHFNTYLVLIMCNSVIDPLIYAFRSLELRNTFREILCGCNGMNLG

[5] = molecular target: T3, Alpha-1A adrenergic receptor (Homo sapiens, UniProt P35348); format: functional, cell-based
T3 sequence (P35348 whole entry): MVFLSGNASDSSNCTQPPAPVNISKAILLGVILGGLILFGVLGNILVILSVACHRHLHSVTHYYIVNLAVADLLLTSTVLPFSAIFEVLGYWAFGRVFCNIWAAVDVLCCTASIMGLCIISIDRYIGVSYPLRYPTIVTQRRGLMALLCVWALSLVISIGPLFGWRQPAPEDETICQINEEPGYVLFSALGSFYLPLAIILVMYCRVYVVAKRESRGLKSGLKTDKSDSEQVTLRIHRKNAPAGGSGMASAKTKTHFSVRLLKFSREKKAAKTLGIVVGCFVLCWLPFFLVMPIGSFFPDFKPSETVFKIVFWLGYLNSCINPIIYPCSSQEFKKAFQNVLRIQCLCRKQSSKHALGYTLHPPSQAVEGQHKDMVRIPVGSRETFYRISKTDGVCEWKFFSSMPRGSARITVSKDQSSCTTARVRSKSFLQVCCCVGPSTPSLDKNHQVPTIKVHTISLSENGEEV

[6] = molecular target: 3',5'-cyclic-AMP phosphodiesterase 4D (Homo sapiens, UniProt Q08499); format: functional
3',5'-cyclic-AMP phosphodiesterase 4D, sequence (Q08499 whole entry): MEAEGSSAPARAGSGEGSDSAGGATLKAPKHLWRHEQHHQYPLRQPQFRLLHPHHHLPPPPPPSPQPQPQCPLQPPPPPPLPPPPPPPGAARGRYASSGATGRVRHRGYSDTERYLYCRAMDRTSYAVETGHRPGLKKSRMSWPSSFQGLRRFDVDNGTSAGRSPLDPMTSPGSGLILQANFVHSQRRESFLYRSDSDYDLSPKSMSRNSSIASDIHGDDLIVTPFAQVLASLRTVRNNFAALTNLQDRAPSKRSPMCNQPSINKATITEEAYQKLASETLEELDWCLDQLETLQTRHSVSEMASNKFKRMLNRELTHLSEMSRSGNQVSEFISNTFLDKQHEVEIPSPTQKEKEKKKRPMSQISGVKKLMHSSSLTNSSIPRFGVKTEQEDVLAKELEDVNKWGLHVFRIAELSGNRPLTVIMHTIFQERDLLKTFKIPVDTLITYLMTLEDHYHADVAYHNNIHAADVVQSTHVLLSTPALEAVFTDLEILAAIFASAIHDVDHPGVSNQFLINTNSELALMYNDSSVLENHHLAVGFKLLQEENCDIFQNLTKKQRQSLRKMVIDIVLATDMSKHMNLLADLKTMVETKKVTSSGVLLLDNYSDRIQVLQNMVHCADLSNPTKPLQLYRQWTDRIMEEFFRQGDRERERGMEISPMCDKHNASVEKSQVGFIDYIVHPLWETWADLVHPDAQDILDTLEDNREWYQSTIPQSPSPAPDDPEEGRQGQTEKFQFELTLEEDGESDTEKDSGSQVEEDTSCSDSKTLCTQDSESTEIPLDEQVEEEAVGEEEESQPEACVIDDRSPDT

[7] = molecular target: T2, Muscarinic acetylcholine receptor M1; format: functional, cell-based; remark: listed apart in the source
[8] = molecular target: T4, Alpha-2C adrenergic receptor (Homo sapiens, UniProt P18825); format: functional
T4 sequence (P18825 whole entry): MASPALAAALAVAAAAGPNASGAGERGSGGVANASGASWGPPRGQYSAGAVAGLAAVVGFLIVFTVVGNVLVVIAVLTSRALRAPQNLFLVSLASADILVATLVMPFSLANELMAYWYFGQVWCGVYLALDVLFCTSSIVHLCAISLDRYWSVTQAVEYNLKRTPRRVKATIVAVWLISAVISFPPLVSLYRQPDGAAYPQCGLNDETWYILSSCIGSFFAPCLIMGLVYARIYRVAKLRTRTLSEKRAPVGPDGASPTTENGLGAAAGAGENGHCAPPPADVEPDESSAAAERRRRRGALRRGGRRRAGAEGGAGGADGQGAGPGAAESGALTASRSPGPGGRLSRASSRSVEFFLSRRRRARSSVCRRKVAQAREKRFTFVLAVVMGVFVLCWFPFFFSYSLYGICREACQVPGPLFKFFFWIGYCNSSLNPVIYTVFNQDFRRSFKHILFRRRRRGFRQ

[9] = molecular target: Growth hormone secretagogue receptor type 1 (Homo sapiens, UniProt Q92847)
Growth hormone secretagogue receptor type 1, sequence (Q92847 whole entry): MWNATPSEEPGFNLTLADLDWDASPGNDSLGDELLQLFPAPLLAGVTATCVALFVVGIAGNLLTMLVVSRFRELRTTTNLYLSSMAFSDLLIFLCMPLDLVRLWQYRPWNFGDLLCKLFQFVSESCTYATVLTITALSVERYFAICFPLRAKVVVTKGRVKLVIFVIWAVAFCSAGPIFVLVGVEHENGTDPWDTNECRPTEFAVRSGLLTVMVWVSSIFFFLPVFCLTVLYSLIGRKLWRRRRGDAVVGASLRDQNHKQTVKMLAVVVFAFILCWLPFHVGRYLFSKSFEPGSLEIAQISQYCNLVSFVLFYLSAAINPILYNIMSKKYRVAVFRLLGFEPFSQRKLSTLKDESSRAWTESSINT

[10] = molecular target: Vascular endothelial growth factor receptor 2 (Homo sapiens, UniProt P35968); format: functional
Vascular endothelial growth factor receptor 2, sequence (P35968 whole entry): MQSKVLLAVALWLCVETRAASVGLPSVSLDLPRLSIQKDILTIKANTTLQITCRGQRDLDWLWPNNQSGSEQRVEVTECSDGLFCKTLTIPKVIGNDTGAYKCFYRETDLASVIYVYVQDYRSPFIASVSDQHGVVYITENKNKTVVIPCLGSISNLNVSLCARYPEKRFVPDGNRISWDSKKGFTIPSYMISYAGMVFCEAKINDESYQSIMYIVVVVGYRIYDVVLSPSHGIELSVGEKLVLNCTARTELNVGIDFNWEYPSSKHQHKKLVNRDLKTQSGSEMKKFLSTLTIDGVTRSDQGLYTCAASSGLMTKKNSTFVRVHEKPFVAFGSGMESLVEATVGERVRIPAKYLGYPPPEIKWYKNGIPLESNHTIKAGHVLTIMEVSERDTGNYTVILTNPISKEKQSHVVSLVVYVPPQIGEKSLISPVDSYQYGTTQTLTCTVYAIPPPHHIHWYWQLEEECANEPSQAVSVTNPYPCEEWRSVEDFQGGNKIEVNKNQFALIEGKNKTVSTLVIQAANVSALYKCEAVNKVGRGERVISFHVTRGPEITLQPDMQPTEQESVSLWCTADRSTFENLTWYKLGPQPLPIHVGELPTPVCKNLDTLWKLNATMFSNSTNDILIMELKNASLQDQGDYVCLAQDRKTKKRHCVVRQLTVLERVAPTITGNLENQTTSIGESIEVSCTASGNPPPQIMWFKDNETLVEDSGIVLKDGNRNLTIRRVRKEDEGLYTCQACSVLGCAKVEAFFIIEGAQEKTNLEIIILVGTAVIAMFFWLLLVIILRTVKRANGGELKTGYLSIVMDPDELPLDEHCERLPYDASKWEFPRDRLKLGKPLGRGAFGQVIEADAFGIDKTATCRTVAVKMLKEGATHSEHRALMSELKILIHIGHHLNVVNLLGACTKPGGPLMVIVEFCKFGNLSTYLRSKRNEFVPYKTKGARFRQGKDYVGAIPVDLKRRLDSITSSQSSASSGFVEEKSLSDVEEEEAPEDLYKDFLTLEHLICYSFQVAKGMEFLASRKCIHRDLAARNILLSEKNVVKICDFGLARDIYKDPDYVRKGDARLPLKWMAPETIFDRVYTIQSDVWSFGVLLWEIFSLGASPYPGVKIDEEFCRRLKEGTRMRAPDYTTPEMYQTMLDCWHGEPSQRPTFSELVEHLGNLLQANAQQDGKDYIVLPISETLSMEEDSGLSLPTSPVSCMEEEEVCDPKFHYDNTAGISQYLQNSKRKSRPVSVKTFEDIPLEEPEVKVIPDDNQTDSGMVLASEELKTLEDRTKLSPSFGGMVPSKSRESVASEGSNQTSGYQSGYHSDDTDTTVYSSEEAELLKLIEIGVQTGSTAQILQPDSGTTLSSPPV

[11] = molecular target: T5, 5-hydroxytryptamine receptor 1A (Homo sapiens, UniProt P08908); format: functional, cell-based
T5 sequence (P08908 whole entry): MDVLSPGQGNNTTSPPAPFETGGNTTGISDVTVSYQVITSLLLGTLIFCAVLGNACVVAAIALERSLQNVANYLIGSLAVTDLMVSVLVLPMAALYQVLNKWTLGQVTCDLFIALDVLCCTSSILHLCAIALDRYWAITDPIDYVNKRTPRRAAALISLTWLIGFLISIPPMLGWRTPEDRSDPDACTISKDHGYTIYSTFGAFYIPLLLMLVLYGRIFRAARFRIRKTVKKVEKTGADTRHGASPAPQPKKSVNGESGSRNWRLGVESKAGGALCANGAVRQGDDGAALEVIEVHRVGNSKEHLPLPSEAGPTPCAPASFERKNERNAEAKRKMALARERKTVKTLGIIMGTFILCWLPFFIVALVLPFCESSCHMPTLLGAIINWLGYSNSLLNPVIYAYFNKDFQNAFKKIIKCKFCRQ

[12] = molecular target: 5-hydroxytryptamine receptor 2B (Homo sapiens, UniProt P41595); format: functional, cell-based
5-hydroxytryptamine receptor 2B, sequence (P41595 whole entry): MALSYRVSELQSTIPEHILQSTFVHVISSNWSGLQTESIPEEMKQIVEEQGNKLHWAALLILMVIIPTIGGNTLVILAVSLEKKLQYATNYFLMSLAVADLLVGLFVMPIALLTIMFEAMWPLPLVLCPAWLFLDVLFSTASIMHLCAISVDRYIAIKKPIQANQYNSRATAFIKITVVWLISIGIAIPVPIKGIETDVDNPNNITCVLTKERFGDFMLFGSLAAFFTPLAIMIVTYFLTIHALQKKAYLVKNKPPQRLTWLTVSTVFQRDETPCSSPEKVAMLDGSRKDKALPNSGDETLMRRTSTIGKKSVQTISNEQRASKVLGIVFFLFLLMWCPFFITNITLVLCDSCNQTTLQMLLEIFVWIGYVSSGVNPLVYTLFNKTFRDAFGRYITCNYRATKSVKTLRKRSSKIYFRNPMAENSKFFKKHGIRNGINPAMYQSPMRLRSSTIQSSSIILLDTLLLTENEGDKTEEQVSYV

[13] = molecular target: Adenosine receptor A2a (Homo sapiens, UniProt P29274)
Adenosine receptor A2a, sequence (P29274 whole entry): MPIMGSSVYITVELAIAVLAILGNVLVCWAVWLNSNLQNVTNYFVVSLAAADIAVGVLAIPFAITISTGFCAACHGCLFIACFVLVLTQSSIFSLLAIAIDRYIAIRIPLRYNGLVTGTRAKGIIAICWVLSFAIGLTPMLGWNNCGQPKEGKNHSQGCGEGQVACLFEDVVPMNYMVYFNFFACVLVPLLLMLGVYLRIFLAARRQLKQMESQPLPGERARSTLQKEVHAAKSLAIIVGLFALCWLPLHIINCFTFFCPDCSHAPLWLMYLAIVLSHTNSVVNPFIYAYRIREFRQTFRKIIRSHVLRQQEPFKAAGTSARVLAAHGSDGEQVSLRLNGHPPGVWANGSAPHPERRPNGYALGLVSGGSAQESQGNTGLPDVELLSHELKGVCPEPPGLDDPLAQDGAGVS
Also: assay procedure not described here.

Row | SMILES | AC50 [1] | AC50 [2] | AC50 [3] | AC50 [4] | AC50 [5] | AC50 [6] | AC50 [7] | AC50 [8] | AC50 [9] | AC50 [10] | AC50 [11] | AC50 [12] | AC50 [13]
1 | C[C@]1(COc2ccc(N3CCC(Oc4ccc(OC(F)(F)F)cc4)CC3)cc2)Cn2cc([N+](=O)[O-])nc2O1 | > 30 µM | > 30 µM | > 30 µM | > 30 µM | > 30 µM | > 30 µM | > 30 µM | > 10 µM | > 30 µM | – | – | – | –
2 | CC(=O)OC(C)OC(=O)C(C)c1ccc(-c2ccccc2)c(F)c1 (stereo not given) | – | 20.2 µM | > 30 µM | – | > 30 µM | – | > 30 µM | – | – | > 30 µM | – | – | –
3 | CNC(=O)C[C@@H](N)C(=O)N[C@@H](C(=O)N[C@@H]1C(=O)N2[C@@H]1SC(C)(C)[C@@H]2C(=O)O)c1ccc(O)cc1 [ASPOXICILLIN] | – | > 30 µM | > 30 µM | – | > 30 µM | – | > 30 µM | – | – | – | – | – | –
4 | C[C@@H](O)[C@H]1C(=O)N2C(C(=O)[O-])=C(SC3Cn4cnc[n+]4C3)[C@H](C)[C@H]12 (stereo not given in full) [BIAPENEM] | – | > 30 µM | > 30 µM | – | > 30 µM | – | > 30 µM | – | – | – | – | – | –
5 | CO/N=C(\C(=O)N[C@@H]1C(=O)N2C(C(=O)[O-])=C(C[n+]3cccc4c3CCC4)CS[C@H]12)c1csc(N)n1 [CEFPIROME] | – | > 30 µM | > 30 µM | – | > 30 µM | > 30 µM | > 30 µM | > 30 µM | – | – | > 30 µM | > 30 µM | –
6 | O=C(O)CC(O)(CC(=O)O)C(=O)O [CITRIC ACID] | – | > 30 µM | – | – | > 30 µM | – | – | – | – | > 30 µM | – | – | –
7 | C[C@@H]1C[C@H]2[C@@H]3C[C@H](F)C4=CC(=O)C=C[C@]4(C)[C@@]3(Cl)[C@@H](O)C[C@]2(C)[C@H]1C(=O)COC(=O)C(C)(C)C [CLOCORTOLONE PIVALATE] | – | > 30 µM | > 30 µM | – | > 30 µM | – | > 30 µM | – | – | – | – | – | –
8 | O=P(O)(O)C(Cl)(Cl)P(=O)(O)O [CLODRONIC ACID] | – | > 30 µM | > 30 µM | – | > 30 µM | – | > 30 µM | – | – | – | – | – | –
9 | Nc1ccncc1 [DALFAMPRIDINE] | – | > 30 µM | 27.9 µM | – | > 30 µM | – | > 3 µM | – | – | – | – | – | –
10 | C[C@H]1O[C@@H](O[C@H]2[C@@H](O)C[C@H](O[C@H]3[C@@H](O)C[C@H](O[C@H]4CC[C@@]5(C)[C@H](CC[C@@H]6[C@@H]5CC[C@]5(C)[C@@H](C7=CC(=O)OC7)CC[C@]65O)C4)O[C@@H]3C)O[C@@H]2C)C[C@H](O)[C@@H]1O [DIGITOXIN] | – | > 30 µM | – | – | > 30 µM | – | – | – | – | > 30 µM | – | – | –
11 | OC(CCCN1CCCCC1)(c1ccccc1)c1ccccc1 [DIPHENIDOL] | – | > 30 µM | – | – | > 30 µM | – | – | – | – | > 30 µM | – | – | –
12 | O=C(CCCN1CC=C(n2c(=O)[nH]c3ccccc32)CC1)c1ccc(F)cc1 [DROPERIDOL] | – | > 30 µM | – | – | > 30 µM | – | – | – | – | > 30 µM | – | – | –
13 | CCn1cc(C(=O)O)c(=O)c2cc(F)c(N3CCNCC3)nc21 [ENOXACIN] | > 30 µM | > 30 µM | – | > 30 µM | > 30 µM | > 10 µM | – | > 10 µM | > 30 µM | > 30 µM | > 10 µM | > 10 µM | > 30 µM
